The CheMixHub viscosity set
“And” between values parts separate entries of the source, which are not always exact repeats. Equal values may be shown once.

Assay: xn = mol fraction of the nth substance listed

OC[C@H]1O[C@@](CO)(O[C@H]2O[C@H](CO)[C@@H](O)[C@H](O)[C@H]2O)[C@@H](O)[C@@H]1O + O
Settings	viscosity
293.15 K, 101 kPa, x1 = 0.00581	1.26 mPa·s and 1.27 mPa·s
293.15 K, 101 kPa, x1 = 0.013	1.96 mPa·s
293.15 K, 101 kPa, x1 = 0.0221	3.21 mPa·s
293.15 K, 101 kPa, x1 = 0.0339	6.2 mPa·s
293.15 K, 101 kPa, x1 = 0.05	15.04 mPa·s and 15.1 mPa·s
293.15 K, 101 kPa, x1 = 0.0732	56.76 mPa·s and 76.48 mPa·s
293.16 K, 101.3 kPa, x1 = 0.013	1.96 mPa·s
293.16 K, 101.3 kPa, x1 = 0.073	56.5 mPa·s
298.15 K, 100 kPa, x1 = 0.0009	1.035 mPa·s
298.15 K, 100 kPa, x1 = 0.001818	0.98 mPa·s
298.15 K, 100 kPa, x1 = 0.004482	1.104 mPa·s
298.15 K, 100 kPa, x1 = 0.007149	1.222 mPa·s
298.15 K, 100 kPa, x1 = 0.008888	1.295 mPa·s
298.15 K, 101 kPa, x1 = 0.003	1.03 mPa·s
298.15 K, 101 kPa, x1 = 0.0058	1.194 mPa·s
298.15 K, 101 kPa, x1 = 0.00581	1.13 mPa·s
298.15 K, 101 kPa, x1 = 0.013	1.715 mPa·s and 1.7 mPa·s
298.15 K, 101 kPa, x1 = 0.017	2.15 mPa·s
298.15 K, 101 kPa, x1 = 0.0221	2.65 mPa·s
298.15 K, 101 kPa, x1 = 0.0339	5.17 mPa·s
298.15 K, 101 kPa, x1 = 0.05	11.49 mPa·s and 11.8 mPa·s
298.15 K, 101 kPa, x1 = 0.0732	43.88 mPa·s and 47.98 mPa·s
303.15 K, 100 kPa, x1 = 0.0009	0.944 mPa·s
303.16 K, 101.3 kPa, x1 = 0.013	1.504 mPa·s
303.16 K, 101.3 kPa, x1 = 0.073	33.78 mPa·s
308.15 K, 100 kPa, x1 = 0.0009	0.8578 mPa·s
308.15 K, 100 kPa, x1 = 0.001818	0.789 mPa·s
308.15 K, 100 kPa, x1 = 0.002681	0.822 mPa·s
308.15 K, 100 kPa, x1 = 0.003594	0.855 mPa·s
308.15 K, 100 kPa, x1 = 0.004482	0.886 mPa·s
308.15 K, 100 kPa, x1 = 0.00626	0.949 mPa·s
308.15 K, 100 kPa, x1 = 0.007149	0.978 mPa·s
308.15 K, 100 kPa, x1 = 0.008888	1.035 mPa·s
308.15 K, 101 kPa, x1 = 0.001814	0.712 mPa·s
308.15 K, 101 kPa, x1 = 0.003	0.822 mPa·s
308.15 K, 101 kPa, x1 = 0.003622	0.777 mPa·s
308.15 K, 101 kPa, x1 = 0.0058	0.949 mPa·s
308.15 K, 101 kPa, x1 = 0.00581	0.89 mPa·s and 0.92 mPa·s
308.15 K, 101 kPa, x1 = 0.007213	0.915 mPa·s
308.15 K, 101 kPa, x1 = 0.0092	1.117 mPa·s
308.15 K, 101 kPa, x1 = 0.013	1.337 mPa·s and 1.35 mPa·s
308.15 K, 101 kPa, x1 = 0.01428	1.291 mPa·s
308.15 K, 101 kPa, x1 = 0.017	1.654 mPa·s
308.15 K, 101 kPa, x1 = 0.01781	1.535 mPa·s
308.15 K, 101 kPa, x1 = 0.0224	2.075 mPa·s
308.15 K, 101 kPa, x1 = 0.0279	2.588 mPa·s
308.15 K, 101 kPa, x1 = 0.0339	3.8 mPa·s
308.15 K, 101 kPa, x1 = 0.0354	3.655 mPa·s
308.15 K, 101 kPa, x1 = 0.05	8.69 mPa·s
308.15 K, 101 kPa, x1 = 0.05167	6.396 mPa·s
308.15 K, 101 kPa, x1 = 0.0732	26.67 mPa·s and 27.9 mPa·s
313.15 K, 100 kPa, x1 = 0.0009	0.7866 mPa·s
313.15 K, 101 kPa, x1 = 0.00581	0.82 mPa·s
313.15 K, 101 kPa, x1 = 0.013	1.2 mPa·s
313.15 K, 101 kPa, x1 = 0.0339	3.25 mPa·s
313.15 K, 101 kPa, x1 = 0.05	6.35 mPa·s and 6.35 mPa·s
313.15 K, 101 kPa, x1 = 0.0732	21.32 mPa·s and 25.87 mPa·s
313.16 K, 101.3 kPa, x1 = 0.013	1.193 mPa·s
313.16 K, 101.3 kPa, x1 = 0.073	21.28 mPa·s
318.15 K, 100 kPa, x1 = 0.001818	0.657 mPa·s
318.15 K, 100 kPa, x1 = 0.002681	0.683 mPa·s
318.15 K, 100 kPa, x1 = 0.003594	0.709 mPa·s
318.15 K, 100 kPa, x1 = 0.004482	0.733 mPa·s
318.15 K, 100 kPa, x1 = 0.00626	0.783 mPa·s
318.15 K, 100 kPa, x1 = 0.007149	0.805 mPa·s
318.15 K, 100 kPa, x1 = 0.008888	0.86 mPa·s
318.15 K, 101 kPa, x1 = 0.00581	0.74 mPa·s
318.15 K, 101 kPa, x1 = 0.00722	0.771 mPa·s
318.15 K, 101 kPa, x1 = 0.01077	0.9 mPa·s
318.15 K, 101 kPa, x1 = 0.013	1.06 mPa·s
318.15 K, 101 kPa, x1 = 0.01432	0.984 mPa·s
318.15 K, 101 kPa, x1 = 0.01785	1.164 mPa·s
318.15 K, 101 kPa, x1 = 0.02128	1.431 mPa·s
318.15 K, 101 kPa, x1 = 0.0221	1.51 mPa·s
318.15 K, 101 kPa, x1 = 0.0339	2.84 mPa·s
318.15 K, 101 kPa, x1 = 0.03502	2.618 mPa·s
318.15 K, 101 kPa, x1 = 0.05	5.04 mPa·s and 5.1 mPa·s
318.15 K, 101 kPa, x1 = 0.0732	17.2 mPa·s and 17.98 mPa·s
323.15 K, 101 kPa, x1 = 0.00581	0.66 mPa·s
323.15 K, 101 kPa, x1 = 0.013	0.98 mPa·s
323.15 K, 101 kPa, x1 = 0.0221	1.36 mPa·s
323.15 K, 101 kPa, x1 = 0.0339	2.52 mPa·s
323.15 K, 101 kPa, x1 = 0.05	4.78 mPa·s and 4.82 mPa·s
323.15 K, 101 kPa, x1 = 0.0732	14.07 mPa·s and 16.78 mPa·s

CCCCC(=O)O + CCCCCCCCO
viscosity [mPa·s], 100 kPa
Settings	x1 = 0.0831	x1 = 0.1619	x1 = 0.2381	x1 = 0.3512	x1 = 0.4418	x1 = 0.5665	x1 = 0.6539	x1 = 0.7441	x1 = 0.8551	x1 = 0.9417
293.15 K	8.14	7.31	6.64	5.83	5.25	4.52	4.04	3.56	2.99	2.55
303.15 K	5.85	5.4	5.01	4.47	4.06	3.51	3.14	2.78	2.36	2.06
313.15 K	4.28	3.97	3.7	3.33	3.06	2.7	2.46	2.21	1.93	1.71
323.15 K	3.21	3.01	2.83	2.59	2.4	2.15	1.99	1.82	1.61	1.45
